# Test results reported in patent publication US7674823B2, “DNA-PK inhibitors” (Cancer Research Technology Limited, priority 2001, dated 2010).
# Like-named read-outs stand apart in the source and are kept apart here.
# How the values were obtained:
# [1] = tested on: HeLa cells; assay: Enhancement Ratio: cell growth inhibition (SRB assay) after 2 Gy irradiation; type: cell-based; conditions: inhibitor 25 μM
# Experimental: DNA-PK inhibitors were used at a fixed concentration of 25 micromolar. Radiation was delivered by a Faxitron 43855D X-ray system at a dose rate of 1Gy per minute The Enhancement ratio at 2 Gy irradiation was calculated from the formula: [formula] Cell growth was assessed using the sulforhodamine B (SRB) assay (Skehan, P., Storung, R., Scudiero, R., Monks, […]., Kenny, S. and Boyd, M. R. (1990) New calorimetric cytotoxicity assay for anticancer-drug screening. J. Natl. Cancer Inst. 82:1107-1112). 400 HeLa cells were seeded into each well of a flat-bottomed 48-well microtiter plate in a volume of 200 μl and incubated for 6 h at 37° C. […] Cells were allowed to grow for a further 1 h before irradiation or mock irradiation. Cells untreated with DNA-PK inhibitor or unirradiated were used as a control. Cells treated with DNA-PK inhibitor alone were used to assess the growth inhibition by the DNA-PK inhibitor. Cells were left for a further 16 h before replacing the media and allowing the cells to grow for a further 6 days at 37° C. The media was then removed and the cells fixed with 200 μl of ice cold 10% (w/v) trichloroacetic acid. The plates were incubated at 4° C. for 20 minutes and then washed four times with water. Each well of cells was then stained with 200 μl of 0.4% (w/v) SRB in 1% acetic acid for 20 minutes before washing four times with 1% acetic acid. Plates were then dried for 2 h at room temperature. The dye from the stained cells was solubilized by the addition of 100 μl of 10 mM Tris Base into each well. Plates were gently shaken and left at room temperature for 30 minutes before measuring the optical density at 564 nm on a Microquant microtiter plate reader.
# [2] = molecular target: T1, Mammalian DNA-PK, isolated from Hela cell nuclear extract (Homo sapiens, UniProt P78527); assay: DNA-PK inhibition assay (33P-ATP, filter binding); type: biochemical
# T1 construct: Mammalian DNA-PK, isolated from Hela cell nuclear extract; endogenous in cells; host or cells: HeLa cell nuclear extract (purified per Gell and Jackson 1999)
# Procedure, shortened: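 DNA-PK from HeLa nuclear extract preincubated with compound 10 min at 30 °C, then started with 50 μM Na-ATP final, ^33P-γATP and 30mer dsDNA (10 ng/μl), run 45 min at 30 °C.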
# [3] = tested on: PI 3-kinase (p110α/p85α); assay: PI 3-kinase inhibition assay; type: biochemical; conditions: selectivity ratio from the IC50s for PI 3-kinase and DNA-PK
# Source text: (§1) In order to assess the inhibitory action of the compounds against PI 3-kinase in vitro, the following assay was used to determine IC50 values.
# (§2) Baculoviral recombinant GST-fused PI 3-kinase (p110α/p85α) was purified from Sf9 insect cells using GSH-sepharose affinity chromatography as described (Wymann, M. T et al., (1996) Wortmannin inactivates phosphoinositide 3-kinase by covalent modification of Lys-802, a residue involved in the phosphate transfer reaction. Mol. Cell Biol. 16:1722-1733). PI 3-kinase (1 μl) was diluted in reaction buffer (89 μl of 50 mM Hepes pH 7.5, 150 mM NaCl, 0.1 mM Sodium Orthovanadate, containing 20 μg of phosphatidylinositol) and varying concentrations of inhibitor compound added. […] Reactions were incubated for a further 20 minutes at 37° C., before quenching with the addition of 400 μl of chloroform/methanol (1:1). Reactions were acidified by the addition of 200 μl of 1M HCl, before separation of the organic and aqueous phases by centrifugation at 10,000 g for 30 seconds. The organic phase was transferred to a fresh tube and washed twice with 150 μl of 1M hydrochloric acid/methanol (1:1), discarding the aqueous phase. The washed reaction product was then placed in a white 96-well plate with 100 μl of scintillation fluid and transferred to a TopCount NXT for scintillation counting. Counts per minute, following a one minute counting time, were recorded for each reaction. The inhibition of PI 3-kinase activity by compounds was calculated as described above for the DNA-PK assay.
# (§3) The selectivity was determined by the following equation: […]
# [4] = molecular target: T2, ATM protein (Homo sapiens, UniProt Q13315); assay: ATM inhibition assay (immunoprecipitated ATM, GSTp53N66 substrate); type: biochemical
# T2 construct: ATM protein was immunoprecipitated from HeLa cell nuclear extract; endogenous in cells; host or cells: HeLa cell nuclear extract (immunoprecipitate)
# Experimental: (§4) In order to assess the inhibitory action of the compounds against ATM in vitro, the following assay was used to determine IC50 values.
# (§5) ATM protein was immunoprecipitated from HeLa cell nuclear extract using rabbit polyclonal antisera raised to the C-terminal ˜500 amino-acid residues of the human ATM protein. The immunoprecipitation was performed according to the methodology described by Banin, S. et al. (1998) Enhanced phosphorylation of p53 by ATM in response to DNA damage. Science 281:1674-1677. 10 μl of immunoprecipitated ATM in Buffer C (50 mM Hepes, pH 7.4, 6 mM MgCl2, 150 mM NaCl, 0.1 mM sodium orthovanadate, 4 mM MnCl2, 0.1 mM dithiothreitol, 10% glycerol) was added to 32.5 μl of buffer C containing 1 μg of the ATM substrate GSTp53N66 in a V-bottomed 96 well polypropylene plate. The GSTp53N66 substrate is the amino terminal 66 amino acid residues of human wild type p53 fused to glutathione S-transferase. ATM phosphorylates p53 on the residue serine 15 (Banin, S. et al. (1998) Enhanced phosphorylation of p53 by ATM in response to DNA damage. Science 281:1674-1677). Varying concentrations of inhibitor were then added. […] After 10 minutes of incubation at 37° C., the reactions were initiated by the addition of 5 μl of 50 μM Na-ATP. After 1 h with shaking at 37° C., 150 μl of phosphate buffered saline (PBS) was added to the reaction and the plate centrifuged at 1500 rpm for 10 minutes. 5 μl of the reaction was then transferred to a 96 well opaque white plate containing 45 μl of PBS to allow the GSTp53N66 substrate to bind to the plate wells. The plate was covered and incubated at room temperature for 1 h with shaking before discarding the contents. The plate wells were washed twice by the addition of PBS prior to the addition of 3% (w/v) bovine serum albumin (BSA) in PBS. The plate was incubated at room temperature for 1 h with shaking before discarding the contents and washing twice with PBS. To the wells, 50 μl of a 1:10,000 dilution of primary phosphoserine-15 antibody (Cell Signaling Technology, #9284L) in 3% BSA/PBS was added to detect the phosphorylation event on the serine 15 residue of p53 elicited by the ATM kinase. After 1 h of incubation at room temperature with shaking, the wells were washed four times with PBS prior to the addition of an anti-rabbit HRP conjugated secondary antibody (Pierce, 31462) with shaking for 1 h at room temperature. The wells were then washed four times with PBS before the addition of chemiluminescence reagent (NEN Renaissance, NEL105). The plate was then shaken briefly, covered with a transparent plate seal and transferred to a TopCount NXT for chemiluminescent counting. Counts per second, following a one second counting time, were recorded for each reaction. The inhibition of ATM activity by compounds was calculated as described above for the DNA-PK assay.
# as §3
# [5] = tested on: ATM protein; assay: as above; type: biochemical, human; conditions: selectivity ratio from the IC50s for ATM and DNA-PK
# Experimental: as §4, §5, §3
# [6] = molecular target: T3, PI 3-kinase (p110α/p85α) (UniProt P32871); assay: PI 3-kinase inhibition assay; type: biochemical; conditions: GST-fused p110α/p85α
# T3 construct: other: GST-fused p110α/p85α
# Source text: as §1, §2, §3
# [7] = tested on: cells; conditions: literature; cited from earlier work
# [8] = molecular target: PI 3-kinase; conditions: stated to be the same as for DNA-PK; cited from earlier work
# [9] = IC50 of less than about 1 μM and/or % inhibition of more than about 50 at 1 μM, read-out: DNA-PK inhibition IC50 (particular efficacy)
# [10] = concentration at which 50% of the enzyme activity is inhibited, read-out: DNA-PK Inhibition IC50
# T2 sequence (Q13315 whole entry): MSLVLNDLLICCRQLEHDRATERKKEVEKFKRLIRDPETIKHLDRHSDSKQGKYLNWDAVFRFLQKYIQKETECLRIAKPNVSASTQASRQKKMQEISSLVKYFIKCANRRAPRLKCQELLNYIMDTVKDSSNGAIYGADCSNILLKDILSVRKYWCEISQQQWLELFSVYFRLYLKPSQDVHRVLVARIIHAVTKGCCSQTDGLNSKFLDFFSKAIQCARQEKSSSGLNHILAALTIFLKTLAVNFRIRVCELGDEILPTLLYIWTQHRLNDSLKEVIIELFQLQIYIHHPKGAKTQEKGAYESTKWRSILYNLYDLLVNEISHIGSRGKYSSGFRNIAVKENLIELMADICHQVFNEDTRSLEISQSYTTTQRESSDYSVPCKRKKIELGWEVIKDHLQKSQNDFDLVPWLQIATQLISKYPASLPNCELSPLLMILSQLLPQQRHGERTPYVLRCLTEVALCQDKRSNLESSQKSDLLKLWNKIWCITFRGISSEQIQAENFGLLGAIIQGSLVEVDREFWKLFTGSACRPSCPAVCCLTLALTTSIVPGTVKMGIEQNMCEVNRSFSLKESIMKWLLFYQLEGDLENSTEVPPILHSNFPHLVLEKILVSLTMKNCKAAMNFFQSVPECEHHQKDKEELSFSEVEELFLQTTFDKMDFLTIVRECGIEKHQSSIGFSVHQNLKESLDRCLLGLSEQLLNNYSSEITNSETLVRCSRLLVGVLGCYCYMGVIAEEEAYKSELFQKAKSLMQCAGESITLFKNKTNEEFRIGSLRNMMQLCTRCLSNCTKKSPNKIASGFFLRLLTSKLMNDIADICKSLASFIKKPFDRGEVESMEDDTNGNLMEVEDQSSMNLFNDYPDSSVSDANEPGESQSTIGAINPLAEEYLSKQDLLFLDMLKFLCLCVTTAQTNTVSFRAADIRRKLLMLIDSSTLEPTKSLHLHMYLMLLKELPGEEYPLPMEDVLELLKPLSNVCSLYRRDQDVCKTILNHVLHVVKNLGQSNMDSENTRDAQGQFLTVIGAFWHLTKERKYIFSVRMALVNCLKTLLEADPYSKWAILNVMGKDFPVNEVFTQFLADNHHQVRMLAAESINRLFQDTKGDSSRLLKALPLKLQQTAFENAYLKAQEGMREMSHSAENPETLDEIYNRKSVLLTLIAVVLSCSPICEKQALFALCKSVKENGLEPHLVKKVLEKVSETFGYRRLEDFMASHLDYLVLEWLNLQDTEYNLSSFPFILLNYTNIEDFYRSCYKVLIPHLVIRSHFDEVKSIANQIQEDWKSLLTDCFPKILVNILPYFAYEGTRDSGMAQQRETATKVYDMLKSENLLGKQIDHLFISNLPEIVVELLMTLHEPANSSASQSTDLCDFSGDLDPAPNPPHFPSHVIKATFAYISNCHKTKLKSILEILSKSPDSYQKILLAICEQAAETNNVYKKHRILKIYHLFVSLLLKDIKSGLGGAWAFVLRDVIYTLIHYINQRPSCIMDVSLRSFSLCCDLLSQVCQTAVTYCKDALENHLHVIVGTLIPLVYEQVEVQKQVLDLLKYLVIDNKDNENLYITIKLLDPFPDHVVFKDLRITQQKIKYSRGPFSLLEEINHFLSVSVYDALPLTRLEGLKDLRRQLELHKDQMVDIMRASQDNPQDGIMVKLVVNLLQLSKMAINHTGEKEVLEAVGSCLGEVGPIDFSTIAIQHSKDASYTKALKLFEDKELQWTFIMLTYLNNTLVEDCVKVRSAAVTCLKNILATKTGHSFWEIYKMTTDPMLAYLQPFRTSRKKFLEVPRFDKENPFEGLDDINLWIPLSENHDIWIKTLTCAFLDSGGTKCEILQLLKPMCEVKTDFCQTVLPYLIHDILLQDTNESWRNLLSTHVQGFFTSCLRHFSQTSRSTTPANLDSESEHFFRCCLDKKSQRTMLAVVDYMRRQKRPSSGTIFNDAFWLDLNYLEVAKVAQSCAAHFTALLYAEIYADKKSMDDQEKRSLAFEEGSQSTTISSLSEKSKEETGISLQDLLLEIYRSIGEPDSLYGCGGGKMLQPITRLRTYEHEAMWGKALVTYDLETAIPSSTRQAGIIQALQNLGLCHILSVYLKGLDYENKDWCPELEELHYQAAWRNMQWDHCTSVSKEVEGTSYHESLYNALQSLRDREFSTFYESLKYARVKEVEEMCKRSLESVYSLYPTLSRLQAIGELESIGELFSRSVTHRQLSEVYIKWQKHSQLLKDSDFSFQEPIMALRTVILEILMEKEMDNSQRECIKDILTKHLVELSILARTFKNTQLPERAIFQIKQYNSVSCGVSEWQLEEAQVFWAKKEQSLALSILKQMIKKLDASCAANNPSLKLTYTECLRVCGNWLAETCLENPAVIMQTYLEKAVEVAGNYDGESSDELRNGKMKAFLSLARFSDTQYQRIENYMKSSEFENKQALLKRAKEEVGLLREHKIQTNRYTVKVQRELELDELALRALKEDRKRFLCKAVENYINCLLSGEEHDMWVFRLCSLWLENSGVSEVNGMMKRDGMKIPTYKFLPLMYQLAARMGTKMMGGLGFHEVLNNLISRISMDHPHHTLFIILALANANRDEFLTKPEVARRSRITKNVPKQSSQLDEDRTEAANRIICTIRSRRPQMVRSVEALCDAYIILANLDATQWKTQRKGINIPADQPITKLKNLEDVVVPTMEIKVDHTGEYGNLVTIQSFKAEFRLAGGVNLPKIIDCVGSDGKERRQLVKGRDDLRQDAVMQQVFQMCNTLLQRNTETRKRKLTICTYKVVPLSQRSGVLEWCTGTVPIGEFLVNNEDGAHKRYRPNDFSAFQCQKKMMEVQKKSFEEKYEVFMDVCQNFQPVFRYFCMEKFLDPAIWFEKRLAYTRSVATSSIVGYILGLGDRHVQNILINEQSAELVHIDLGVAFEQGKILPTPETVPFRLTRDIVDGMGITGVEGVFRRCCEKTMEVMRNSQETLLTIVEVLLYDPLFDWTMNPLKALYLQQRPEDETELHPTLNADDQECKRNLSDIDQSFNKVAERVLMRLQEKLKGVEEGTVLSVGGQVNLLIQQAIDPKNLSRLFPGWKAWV
Structure (SMILES),Enhancement Ratio (ER) [1],"IC50 [2, 9] [µM]","IC50 [2, 10] [µM]",Δ(DNA-PK/PI 3-K) [3],IC50 [4] [µM],Δ(DNA-PK/ATM) [5],IC50 [6] [µM],melting point [°C],sensitisation of cells to the effects of IR [7],IC50 [8] [µM]
"O=c1cc(N2CCOCC2)nc2c3ccccc3ccn12 [Compound 5, 2-morpholin-1-yl-pyrimido-[2,1-a]isoquinolin-4-one]",1.63,< 1,0.35,>143,> 100,>286,–,–,–,–
"O=c1cc(-c2ccccc2)oc(N2CCOCC2)c1 [Compound 285, 2-(morpholin-4-yl)-6-phenyl-pyran-4-one]",–,–,–,38,> 50,>63,30,148 to 150,–,–
"COc1ccc(-c2cc(=O)cc(N3CCOCC3)o2)cc1 [Compound 288, 2-(4-Methoxyphenyl)-6-(morpholin-4-yl)-pyran-4-one]",–,–,–,43,> 100,>286,15,–,–,–
"CC(C)(C)c1ccc(-c2cc(=O)cc(N3CCOCC3)o2)cc1 [Compound 289, 2-(4-tert-butyl-phenyl)-6-(morpholin-4-yl)-pyran-4-one]",–,–,–,82,> 50,>111,37,156,–,–
"O=c1cc(-c2ccc(F)cc2)oc(N2CCOCC2)c1 [Compound 292, 6-(4-fluorophenyl)-2-(morpholin-4-yl)pyran-4-one]",–,–,–,52,> 100,>400,13,216 to 217,–,–
"O=c1cc(N2CCOCC2)oc2c1ccc1ccccc12 [Compound 293, 2-(morpholin-4-yl)-benzo[h]chromen-4-one]",1.7,< 1,0.4,50,> 100,>250,20,–,–,–
"O=c1cc(N2CCSCC2)oc2c1ccc1ccccc12 [Compound 296, 2-(thiomorpholin-4-yl)-benzo[h]chromen-4-one]",–,–,1.2,5,> 100,>83,6,171 to 173,–,–
"O=c1cc(N2CCOCC2)oc2cc3ccccc3cc12 [Compound 301, 2-(morpholin-4-yl)-benzo[g]chromen-4-one]",–,< 1,0.4,40,> 50,>125,16,219,–,–
"O=c1cc(N2CCOCC2)oc2ccc3ccccc3c12 [Compound 310, 2-morpholin-4-yl-benzo[f]chromen-4-one]",–,–,–,110,> 100,>1000,11,–,–,–
"O=c1cc(N2CCOCC2)oc2cc(OCc3ccccc3)ccc12 [Compound 337, 7-Benzyloxy-2-morpholin-4-yl-chromen-4-one]",1.12,< 1,0.65,–,> 100,>154,–,–,–,–
"O=c1cc(N2CCOCC2)oc2cc(OCc3ccc(F)cc3)ccc12 [Compound 414, 7-(4-Fluoro-benzyloxy)-2-morpholin-4-yl-chromen-4-one]",1.69,–,1.5,–,> 100,–,95,–,–,–
"O=c1cc(N2CCOCC2)oc2cc(OCc3ccc(Cl)cc3)ccc12 [Compound 415, 7-(4-chlorobenzyloxy)-2-(morpholin-4-yl)-chromen-4-one]",1.86,< 1,0.5,>200,> 100,>200,> 100,–,–,–
"O=c1cc(N2CCOCC2)oc2cc(OCc3ccc(Br)cc3)ccc12 [Compound 416, 7-(4-Bromobenzyloxy)-2-morpholin-4-yl-chromen-4-one]",1.32,< 1,0.6,–,> 100,>167,–,221 to 222,–,–
O=c1cc(N2CCOCC2)oc2c(-c3ccccc3)cccc12 [LY294002],–,–,–,–,–,–,–,–,weakly sensitise,~1
